Reference: US20110034369A1, “Agonists of Bitter Taste Receptors and Uses Thereof” (DEUTSCHES INSTITUT FUR ERNAHRUNGSFORSCHUNG POTSDAM-REHBRUCKE, priority 2004, published 2011)

What was measured:
Format in all cases: cell-based
[1] = target: T1, hTAS2R3 (Homo sapiens, UniProt Q9NYW6); test: FLIPR calcium mobilization, hTAS2R3-transfected HEK-293T/Gα16gust44 cells; settings: response of hTAS2R3; calcium signal
T1 construct: export tag: amino acids 1-45 of rat somatostatin receptor 3 (N); expressed in transfected cells; host or cells: HEK-293T cells stably expressing the chimeric G-protein subunit Galpha16gust44
T1 sequence (Q9NYW6 1-316): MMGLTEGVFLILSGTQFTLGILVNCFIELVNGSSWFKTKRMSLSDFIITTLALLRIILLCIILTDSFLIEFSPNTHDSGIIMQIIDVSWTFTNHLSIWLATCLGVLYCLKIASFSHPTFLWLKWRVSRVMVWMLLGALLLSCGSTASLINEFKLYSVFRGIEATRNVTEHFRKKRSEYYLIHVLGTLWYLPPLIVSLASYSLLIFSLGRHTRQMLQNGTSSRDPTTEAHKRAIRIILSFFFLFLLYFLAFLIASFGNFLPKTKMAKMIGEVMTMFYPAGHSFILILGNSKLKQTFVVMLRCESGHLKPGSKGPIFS
Method: (§1) Ligand screening using an automated fluorometric imaging plate reader (Molecular Devices) was essentially done as described (Bufe B. et al. (2002) Nature Genetics 32: 397-401). Briefly: The cells were seeded at a density of 70,000±10,000 cells per well in 96-well microtiter plates. The cDNA of hTAS2R1, hTASR3, hTASR7 and hTASR40 supplemented with an amino terminal export tag corresponding to amino acids 1-45 of rat somatostatin receptor 3 and a carboxy terminal HSV-tag was transiently transfected into HEK-293T cells stably expressing the chimeric G-protein subunit Gα16gust44 (Ueda T. et al. (2003) J. Neurosci. 23: 7376-7380) using Lipofectamine2000 (Invitrogen). Expression rates were determined to be 20% for hTAS2R1; 35% for hTAS2R3, 14% for hTAS2R7 and 29% for hTAS2R40 by indirect immunocyclochemistry using monoclonal anti-HSV antibodies (Novagen) and secondary anti-mouse IgG antibodies coupled to Alexa 488 (Molecular probes) see (FIG. 1). 24-32 hours after transfection, the cells were then loaded for 1 hour with the calcium sensitive dye Fluo4-AM (2 μg/ml in DMEM, Molecular Probes). […] Calcium mobilization was monitored by an automated fluorometric imaging plate reader (Molecular Devices). […] For dose-response curves, the obtained calcium signals were corrected for and normalized to background fluorescence ΔF/F=(F−F0)/F0 and baseline noise was subtracted.

[2] = target: T2, hTAS2R7 (Homo sapiens, UniProt Q9NYW3); test: FLIPR calcium mobilization, hTAS2R7-transfected HEK-293T/Gα16gust44 cells; settings: response of hTAS2R7, calcium signal
T2 construct: export tag: amino acids 1-45 of rat somatostatin receptor 3 (N); expressed in transfected cells; host or cells: HEK-293T cells stably expressing the chimeric G-protein subunit Galpha16gust44
T2 sequence (Q9NYW3 1-318): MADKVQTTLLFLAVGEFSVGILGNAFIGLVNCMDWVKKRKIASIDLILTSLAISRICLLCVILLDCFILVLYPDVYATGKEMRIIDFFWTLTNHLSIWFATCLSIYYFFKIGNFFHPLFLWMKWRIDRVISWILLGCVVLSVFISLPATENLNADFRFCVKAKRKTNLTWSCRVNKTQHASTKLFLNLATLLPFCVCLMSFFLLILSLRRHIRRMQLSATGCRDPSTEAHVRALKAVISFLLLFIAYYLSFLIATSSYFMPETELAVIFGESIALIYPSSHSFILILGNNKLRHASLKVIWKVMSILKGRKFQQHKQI
Method: Ligand screening using an automated fluorometric imaging plate reader (Molecular Devices) was essentially done as described (Bufe B. et al. (2002) Nature Genetics 32: 397-401). Briefly: The cells were seeded at a density of 70,000±10,000 cells per well in 96-well microtiter plates. The cDNA of hTAS2R1, hTASR3, hTASR7 and hTASR40 supplemented with an amino terminal export tag corresponding to amino acids 1-45 of rat somatostatin receptor 3 and a carboxy terminal HSV-tag was transiently transfected into HEK-293T cells stably expressing the chimeric G-protein subunit Gα16gust44 (Ueda T. et al. (2003) J. Neurosci. 23: 7376-7380) using Lipofectamine2000 (Invitrogen). Expression rates were determined to be 20% for hTAS2R1; 35% for hTAS2R3, 14% for hTAS2R7 and 29% for hTAS2R40 by indirect immunocyclochemistry using monoclonal anti-HSV antibodies (Novagen) and secondary anti-mouse IgG antibodies coupled to Alexa 488 (Molecular probes) see (FIG. 1). 24-32 hours after transfection, the cells were then loaded for 1 hour with the calcium sensitive dye Fluo4-AM (2 μg/ml in DMEM, Molecular Probes). Cells were washed 3× in solution C1 (130 mM NaCl, 5 mM KCl, 10 mM Hepes, 2 mM CaCl2, and 10 mM Glucose, pH 7.4). Calcium mobilization was monitored by an automated fluorometric imaging plate reader (Molecular Devices). Ligands (Sigma-Aldrich) were dissolved in C1 solution. All data were collected from experiments carried out in triplicate. For dose-response curves, the obtained calcium signals were corrected for and normalized to background fluorescence ΔF/F=(F−F0)/F0 and baseline noise was subtracted.

[3] = target: T3, hTAS2R1 (Homo sapiens, UniProt Q9NYW7); test: FLIPR calcium mobilization, hTAS2R1-transfected HEK-293T/Gα16gust44 cells; settings: response of hTAS2R1, calcium signal; for threshold: Fluo4-AM, transiently transfected HEK-293T Gα16gust44; for EC50: dose-response
T3 construct: export tag: amino acids 1-45 of rat somatostatin receptor 3 (N); expressed in transfected cells; host or cells: HEK-293T cells stably expressing the chimeric G-protein subunit Galpha16gust44
T3 sequence (Q9NYW7 1-299): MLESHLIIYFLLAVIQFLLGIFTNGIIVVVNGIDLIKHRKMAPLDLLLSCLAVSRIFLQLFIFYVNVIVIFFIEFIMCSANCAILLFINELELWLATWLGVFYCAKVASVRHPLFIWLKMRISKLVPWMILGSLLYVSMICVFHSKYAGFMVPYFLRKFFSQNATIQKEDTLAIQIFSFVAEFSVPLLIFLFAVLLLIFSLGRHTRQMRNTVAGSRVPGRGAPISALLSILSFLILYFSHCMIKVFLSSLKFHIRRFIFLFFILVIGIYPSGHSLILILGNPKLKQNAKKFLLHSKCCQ
Method: Ligand screening using an automated fluorometric imaging plate reader (Molecular Devices) was essentially done as described (Bufe B. et al. (2002) Nature Genetics 32: 397-401). Briefly: The cells were seeded at a density of 70,000±10,000 cells per well in 96-well microtiter plates. The cDNA of hTAS2R1, hTASR3, hTASR7 and hTASR40 supplemented with an amino terminal export tag corresponding to amino acids 1-45 of rat somatostatin receptor 3 and a carboxy terminal HSV-tag was transiently transfected into HEK-293T cells stably expressing the chimeric G-protein subunit Gα16gust44 (Ueda T. et al. (2003) J. Neurosci. 23: 7376-7380) using Lipofectamine2000 (Invitrogen). […] 24-32 hours after transfection, the cells were then loaded for 1 hour with the calcium sensitive dye Fluo4-AM (2 μg/ml in DMEM, Molecular Probes). Cells were washed 3× in solution C1 (130 mM NaCl, 5 mM KCl, 10 mM Hepes, 2 mM CaCl2, and 10 mM Glucose, pH 7.4). Calcium mobilization was monitored by an automated fluorometric imaging plate reader (Molecular Devices). Ligands (Sigma-Aldrich) were dissolved in C1 solution. All data were collected from experiments carried out in triplicate. For dose-response curves, the obtained calcium signals were corrected for and normalized to background fluorescence ΔF/F=(F−F0)/F0 and baseline noise was subtracted.

[4] = target: T4, hTAS2R40 (Homo sapiens, UniProt P59535); test: FLIPR calcium mobilization, hTAS2R40-transfected HEK-293T/Gα16gust44 cells; settings: response of hTAS2R40; calcium signal
T4 construct: export tag: amino acids 1-45 of rat somatostatin receptor 3 (N); expressed in transfected cells; host or cells: HEK-293T cells stably expressing the chimeric G-protein subunit Galpha16gust44
Method: as §1

T4 sequence (P59535 whole entry, the tested form may be a part): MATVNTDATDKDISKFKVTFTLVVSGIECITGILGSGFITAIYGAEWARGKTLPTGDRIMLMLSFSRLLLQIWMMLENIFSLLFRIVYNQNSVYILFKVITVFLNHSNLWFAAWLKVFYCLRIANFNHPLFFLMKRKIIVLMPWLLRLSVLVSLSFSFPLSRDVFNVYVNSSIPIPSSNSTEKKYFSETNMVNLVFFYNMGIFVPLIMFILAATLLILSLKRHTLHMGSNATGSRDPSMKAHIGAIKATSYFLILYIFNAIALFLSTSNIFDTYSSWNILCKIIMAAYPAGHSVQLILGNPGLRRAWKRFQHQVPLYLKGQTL

Row | Compound | max. amplitude [2] | threshold [2] | max. amplitude [3] | threshold [3] | EC50 [3] | also measured
1 | CN1CC(=O)NC1=N [Creatinine, creatinine] | 3000 counts | ~10 mM | – | – | – | max. amplitude [1]: 5000 counts; threshold [1]: ~30 mM
2 | C=C(C)[C@@H]1[C@H]2OC(=O)[C@@H]1[C@]1(O)C[C@H]3O[C@]34C(=O)O[C@H]2[C@]14C [Picrotoxinin, picrotoxinin] | – | – | 2000 counts | ~0.0001 mM | – | –
3 | COC(=O)[C@@H]1[C@H]2C[C@H]3c4[nH]c5ccccc5c4CCN3C[C@@H]2CC[C@@H]1O [Yohimbine, yohimbine] | – | – | 3000 counts | ~0.03 mM | – | –
4 | O=C(O)c1cc(=O)c2c(OCC(O)COc3cccc4oc(C(=O)O)cc(=O)c34)cccc2o1 [Cromolyn, cromolyn] | 3000 counts | ~1 mM | – | – | – | EC50 ([2]; dose-response): 9000 µM
5 | O=C(N[C@H](CO)[C@H](O)c1ccc([N+](=O)[O-])cc1)C(Cl)Cl [Chloramphenicol, chloramphenicol] | – | – | 9000 counts | ~0.1 mM | 200 µM | –
6 | humulone | – | – | 9000 counts | ~0.0001 mM | 0.9 µM | max. amplitude [4]: 6000 counts; threshold [4]: <0.00003 mM
